Data as given in patent publication EP0908457B1, “3-(1,2-benzisothiazol- and isoxazol-5-Y1)-2,4(1H,3H)-pyrimidinedione or thione and 3-(1,2-benzisothiazol- and isoxazol-5-y1)-4(3H)-pyrimidinone or thione herbicidal agents” (BASF AKTIENGESELLSCHAFT, priority 1997, dated 1999).

How the values were obtained:
Cyperus iria = assay: Preemergence weed control under flooded paddy conditions, CYPIR (Rice Flatsedge); assay type: in vivo; settings: preemergence, flooded paddy, rated three to four weeks after treatment
[1] = system: Echinochloa oryzoides (Ard.) Fritsch.; assay: Preemergence weed control under flooded paddy conditions, ECHORC (Watergrass (Calif.)); assay type: in vivo; settings: preemergence, flooded paddy, rated three to four weeks after treatment
[2] = system: Oryza sativa, (L.) Tebonnet; assay: Rice tolerance to post-transplant applications under flooded paddy conditions (Example 187), ORYSAT (Rice, Tebonnet); settings: rated three to four weeks after treatment; on herbicidal effect rating ORYSAT: meaning of each grade not given here
[3] = system: Cyperus serotinus, Rottb.; assay: Preemergence weed control under flooded paddy conditions, CYPSE (Flatsedge); assay type: in vivo; settings: preemergence, rated three to four weeks after treatment
[4] = system: Monochoria vaginalis, Presl.; assay: Preemergence weed control under flooded paddy conditions, MOOVA (Monochoria); assay type: in vivo; settings: preemergence, flooded paddy, rated three to four weeks after treatment
Sagittaria pygmaea, L. = assay: Preemergence weed control under flooded paddy conditions, SAGPY (Arrowhead (Pygmaea)); assay type: in vivo; settings: preemergence, flooded paddy, rated three to four weeks after treatment

Compound: Cn1c(C(F)(F)F)cc(=O)n(-c2ccc3snc(COC(=O)Cc4ccccc4)c3c2)c1=O [Example 369, 2,4(1H,3H)-Pyrimidinedione, 3-[3-(hydroxymethyl)-1,2-benzisothiazol-5-yl]-1-methyl-6-(trifluoromethyl)-, phenylacetate (ester)]
- herbicidal effect rating, CYPIR (Cyperus iria; Rate 0.0320 kg/ha): 7.0
- herbicidal effect rating, CYPIR (Cyperus iria; Rate 0.0620 kg/ha): 7.0
- herbicidal effect rating, CYPIR (Cyperus iria; Rate 0.1250 kg/ha): 9.0
- herbicidal effect rating, CYPIR (Cyperus iria; Rate 0.2500 kg/ha): 9.0
- herbicidal effect rating, ECHORC ([1]; Rate 0.0320 kg/ha): 3.0
- herbicidal effect rating, ECHORC ([1]; Rate 0.0620 kg/ha): 3.0
- herbicidal effect rating, ECHORC ([1]; Rate 0.1250 kg/ha): 6.0
- herbicidal effect rating, ECHORC ([1]; Rate 0.2500 kg/ha): 8.0
- herbicidal effect rating ORYSAT ([2]; Rate 0.0320 kg/ha): 6.0
- herbicidal effect rating ORYSAT ([2]; Rate 0.0620 kg/ha): 6.0
- herbicidal effect rating ORYSAT ([2]; Rate 0.1250 kg/ha): 7.0
- herbicidal effect rating ORYSAT ([2]; Rate 0.2500 kg/ha): 7.0
- herbicidal effect rating, CYPSE ([3]; Rate 0.0320 kg/ha): 0.0
- herbicidal effect rating, CYPSE ([3]; Rate 0.0620 kg/ha): 3.0
- herbicidal effect rating, CYPSE ([3]; Rate 0.1250 kg/ha): 4.0
- herbicidal effect rating, CYPSE ([3]; Rate 0.2500 kg/ha): 9.0
- herbicidal effect rating, MOOVA ([4]; Rate 0.0320 kg/ha): 9.0
- herbicidal effect rating, MOOVA ([4]; Rate 0.0620 kg/ha): 9.0
- herbicidal effect rating, MOOVA ([4]; Rate 0.1250 kg/ha): 9.0
- herbicidal effect rating, MOOVA ([4]; Rate 0.2500 kg/ha): 9.0
- herbicidal effect rating, SAGPY (Sagittaria pygmaea, L.; Rate 0.0320 kg/ha): 0.0
- herbicidal effect rating, SAGPY (Sagittaria pygmaea, L.; Rate 0.0620 kg/ha): 6.0
- herbicidal effect rating, SAGPY (Sagittaria pygmaea, L.; Rate 0.1250 kg/ha): 9.0
- herbicidal effect rating, SAGPY (Sagittaria pygmaea, L.; Rate 0.2500 kg/ha): 9.0

Compound: Cn1c(C(F)(F)F)cc(=O)n(-c2cc3c(CC#N)nsc3cc2F)c1=O [Example 379, 1,2-Benzisothiazole-3-acetonitrile, 5-[3,6-dihydro-3-methyl-2,6-dioxo-4-(trifluoromethyl)-1(2H)-pyrimidinyl]-6-fluoro-]
- herbicidal effect rating, CYPIR (Cyperus iria; Rate 0.0320 kg/ha): 5.5
- herbicidal effect rating, CYPIR (Cyperus iria; Rate 0.0620 kg/ha): 7.5
- herbicidal effect rating, CYPIR (Cyperus iria; Rate 0.1250 kg/ha): 9.0
- herbicidal effect rating, CYPIR (Cyperus iria; Rate 0.2500 kg/ha): 9.0
- herbicidal effect rating, ECHORC ([1]; Rate 0.0320 kg/ha): 2.0
- herbicidal effect rating, ECHORC ([1]; Rate 0.0620 kg/ha): 5.0
- herbicidal effect rating, ECHORC ([1]; Rate 0.1250 kg/ha): 7.5
- herbicidal effect rating, ECHORC ([1]; Rate 0.2500 kg/ha): 8.0
- herbicidal effect rating ORYSAT ([2]; Rate 0.0320 kg/ha): 7.0
- herbicidal effect rating ORYSAT ([2]; Rate 0.0620 kg/ha): 8.5
- herbicidal effect rating ORYSAT ([2]; Rate 0.1250 kg/ha): 9.0
- herbicidal effect rating ORYSAT ([2]; Rate 0.2500 kg/ha): 9.0
- herbicidal effect rating, CYPSE ([3]; Rate 0.0320 kg/ha): 2.5
- herbicidal effect rating, CYPSE ([3]; Rate 0.0620 kg/ha): 6.5
- herbicidal effect rating, CYPSE ([3]; Rate 0.1250 kg/ha): 8.5
- herbicidal effect rating, CYPSE ([3]; Rate 0.2500 kg/ha): 8.5
- herbicidal effect rating, MOOVA ([4]; Rate 0.0320 kg/ha): 9.0
- herbicidal effect rating, MOOVA ([4]; Rate 0.0620 kg/ha): 9.0
- herbicidal effect rating, MOOVA ([4]; Rate 0.1250 kg/ha): 9.0
- herbicidal effect rating, MOOVA ([4]; Rate 0.2500 kg/ha): 9.0
- herbicidal effect rating, SAGPY (Sagittaria pygmaea, L.; Rate 0.0320 kg/ha): 3.5
- herbicidal effect rating, SAGPY (Sagittaria pygmaea, L.; Rate 0.0620 kg/ha): 6.5
- herbicidal effect rating, SAGPY (Sagittaria pygmaea, L.; Rate 0.1250 kg/ha): 9.0
- herbicidal effect rating, SAGPY (Sagittaria pygmaea, L.; Rate 0.2500 kg/ha): 9.0

Compound: Cc1ccc(OC(C)(C)C(=O)O)c(-c2nsc3ccc(-n4c(=O)cc(C(F)(F)F)n(C)c4=O)cc23)c1 [Example 515, Propionic acid, 2-{{2-{5-[3,6-dihydro-3-methyl-2,6-dioxo-4-(trifluoromethyl)-1(2H)-pyrimidinyl]-1,2-benzisothiazol-3-yl}-p-tolyl}oxy}-2-methyl-]
- CYPIR herbicidal rating (Cyperus iria; 0.0320 kg/ha): 0.0
- CYPIR herbicidal rating (Cyperus iria; 0.0620 kg/ha): 2.0
- CYPIR herbicidal rating (Cyperus iria; 0.1250 kg/ha): 4.0
- CYPIR herbicidal rating (Cyperus iria; 0.2500 kg/ha): 7.0
- ECHORC herbicidal rating ([1]; 0.0320 kg/ha): 2.0
- ECHORC herbicidal rating ([1]; 0.0620 kg/ha): 6.0
- ECHORC herbicidal rating ([1]; 0.1250 kg/ha): 8.0
- ECHORC herbicidal rating ([1]; 0.2500 kg/ha): 9.0
- ORYSAT herbicidal rating (rice tolerance) ([2]; 0.0320 kg/ha): 0.0
- ORYSAT herbicidal rating (rice tolerance) ([2]; 0.0620 kg/ha): 2.0
- ORYSAT herbicidal rating (rice tolerance) ([2]; 0.1250 kg/ha): 4.0
- ORYSAT herbicidal rating (rice tolerance) ([2]; 0.2500 kg/ha): 6.0
- CYPSE herbicidal rating ([3]; 0.0320 kg/ha): 0.0
- CYPSE herbicidal rating ([3]; 0.0620 kg/ha): 0.0
- CYPSE herbicidal rating ([3]; 0.1250 kg/ha): 0.0
- CYPSE herbicidal rating ([3]; 0.2500 kg/ha): 0.0
- MOOVA herbicidal rating ([4]; 0.0320 kg/ha): 9.0
- MOOVA herbicidal rating ([4]; 0.0620 kg/ha): 9.0
- MOOVA herbicidal rating ([4]; 0.1250 kg/ha): 9.0
- MOOVA herbicidal rating ([4]; 0.2500 kg/ha): 9.0
- SAGPY herbicidal rating (Sagittaria pygmaea, L.; 0.0320 kg/ha): 0.0
- SAGPY herbicidal rating (Sagittaria pygmaea, L.; 0.0620 kg/ha): 0.0
- SAGPY herbicidal rating (Sagittaria pygmaea, L.; 0.1250 kg/ha): 0.0
- SAGPY herbicidal rating (Sagittaria pygmaea, L.; 0.2500 kg/ha): 0.0
